The values below come from patent US20160022606A1, “NOVEL THERAPY FOR PROSTATE CARCINOMA” (PELLFICURE PHARMACEUTICALS INC., priority 2013, published 2016).

Data set [1] deals with TRAMP-C2 cells. The data set is described as follows: Incidence of MI, AP and PY in TRAMP-C2 cells (H2B-GFP) by fluorescent microscopy. Conditions: for AP (×10^−3) / MI (×10^−3) / PY (×10^−3): RPMI without phenol red, no FCS. Format: cell-based, mouse. The text has this: At each time point, two peripheral and two central ×20 fields of the tumor are captured with a FITC filter and an integrated frame grabber. Only mitotic figures in metaphase-telophase (MI) are included in the mitotic indices to exclude the potential artifact of nuclear membrane distortion. Apoptotic/Pyknotic nuclei are defined as H2B-GFP labeled nuclei with a cross sectional area <30 μm^2. Nuclear karyorrhexis (NK), easily distinguishable by the vesicular nuclear condensation and brightness of H2BGFP, is included within this apoptotic indices.
For example, TRAMP-C2 cells (transfected with H2B-GFP) were plated at 2.08×10^4 cells/cm^2 density in complete RPMI medium (10% of heat-inactivated FCS, 10^−8 M DHT, 5 μg/ml insulin, 6 ng/ml EGF, 100 U/ml penicillin, 100 μg/ml streptomycin, 2 mM L-glutamine) and grown at 37° C. in a humidified 5% CO2 atmosphere overnight. The cells were 3× washed with PBS and medium was replaced for RPMI medium without phenol red and without FCS. One set of cells had no DHT, the other set was incubated in the presence of DHT 10^−8 M overnight. 24 h later, the medium was replaced for medium (RPMI without phenol red, no FCS) containing increasing concentrations of plumbagin in the range 0-1 μM with DHT 10^−8 M or without DHT. 24 h later the incidence of MI, AP, and PY was evaluated by fluorescent microscopy.

The format of data set [2] is physicochemical. The method, then:
Plumbagin was formulated as an inclusion complex with heptakis(2,6-di-O-methyl)-beta-cyclodextrin. In brief, a super-saturated solution of plumbagin in 0.1M of heptakis(2,6-di-O-methyl)-beta-cyclodextrin was stirred for 72 hours at 25+/−0.5° C. Then the mixture was filtered through a 0.2 µm nylon membrane filter. The concentration of solubilized plumbagin has been determined by UV-VIS spectroscopy (Amax(263 nm and 417 nm)).

Data set [3] relates to tubulin. Conditions: Acharya et al., Biochemistry 2008; cited from earlier work.
Data set [4] deals with prostate carcinoma cells. Conditions: plumbagin 5 umol/L; cited from earlier work.
Data set [5] concerns hepatoma. The note with it: in vivo; cited from earlier work.
The subject of data set [6] is fibrosarcomas. The note with it: in vivo; cited from earlier work.
Data set [7] deals with tubulin. The note with it: Acharya et al., Biochemistry 2008; cited from earlier work. The source holds these as a separate data set.
The subject of data set [8] is hormone-refractory prostate cancer. Conditions: Aziz et al., Cancer Res. 2008; cited from earlier work.
In data set [9] the test system is P388 lymphocytic leukemia. Conditions: in vivo; cited from earlier work.

`C[C@]12CCC(=O)C[C@@H]1CC[C@@H]1[C@@H]2CC[C@]2(C)[C@@H](O)CC[C@@H]12` [DHT, dihydrotestosterone, reference compound]: in data set [1] (DHT 0.01 μM), the “AP (×10^−3)” value is 13.8 ×10^−3, the “MI (×10^−3)” value is on record as 4.911 ×10^−3 and the “PY (×10^−3)” value is given as 0.8681 ×10^−3.
On to `CC1=CC(=O)c2c(O)cccc2C1=O` [Plumbagin, 5-hydroxy-2-methylnaphthalene-1,4-dione], for which the “induction of cell cycle entry / mitosis compared with DHT” value in data set [1] (0.6 μM of plumbagin vs DHT at 10^−8 M) is listed as “much more effectively than DHT at 10^−8 M”. The “AP (×10^−3)” value in [1] (plumbagin 0.4 μM, 24 h) is given as 8.852 ×10^−3; in [1] (plumbagin 0.6 μM, 24 h), 9.371 ×10^−3; in [1] (plumbagin 0.8 μM, 24 h), 16.11 ×10^−3; in data set [1] (plumbagin 1 μM, 24 h), 14.22 ×10^−3. In addition, the “MI (×10^−3)” value in data set [1] (plumbagin 0.4 μM, 24 h) is given as 8.89 ×10^−3; in data set [1] (plumbagin 0.6 μM, 24 h) it was 14.81 ×10^−3; in [1] (plumbagin 0.8 μM, 24 h), 12.7 ×10^−3; in [1] (plumbagin 1 μM, 24 h) it was 7.285 ×10^−3. The “PY (×10^−3)” value in [1] (plumbagin 0.4 μM, 24 h) was 20.495 ×10^−3; in [1] (plumbagin 0.6 μM, 24 h), 16.76 ×10^−3; in data set [1] (plumbagin 0.8 μM, 24 h) it was 16.73 ×10^−3; in data set [1] (plumbagin 1 μM, 24 h), 8.244 ×10^−3. For the same molecule, the “K1:1 (phase-solubility diagram analysis)” value in [2] was 485 M⁻¹. In addition, the “in vitro tubulin polymerization” value in data set [3] is given as “inhibits in vitro tubulin polymerization”. Moreover, the “expression of PKCq, PI3K, AKT, activation of AP-1, NF-κB, Stat3” value in data set [4] is “inhibit expression of multiple molecular targets”. Besides, in data set [5], the effect on hepatoma result is reported as “induced regression of hepatoma”. The “ED50 anticancer effect toward fibrosarcomas” value in data set [6] is 0.75 mg/kg body weight. In [7], the tubulin binding site result is on record as “recognizes the colchicine binding site of tubulin”. Also, the “effect on hormone-refractory prostate cancer” value in data set [8] is “inhibited growth and invasion of hormone-refractory prostate cancer”. Besides, the “ED50 anticancer effect toward P388 lymphocytic leukemia” value in [9] is reported as 4 mg/kg body weight.
